These are literature values, as cited in patent US5670479A, “α-ketoamide derivatives as inhibitors of thrombosis” (Corvas International, Inc., priority 1994, dated 1997).

One may read the pKi as the negative decadic logarithm of the Ki, by convention in mol/L.

pKi: −log10 of the molar value. Converted amounts (≈) assume the structure as drawn. Where only a bound is given, the exact number is not on record here.

For data set [1], the system named is baboons. Conditions: baboon, other direct antithrombins evaluated earlier in this model, cited from earlier work; for Antihemostatic Effects APTT: control 32 sec; for Antihemostatic Effects Bleeding Time: control 4 min.
The test system of data set [2] is baboons. The conditions noted are these: baboon; dose which gives a 50% inhibition of platelet deposition; other direct antithrombins evaluated earlier in this model; cited from earlier work.
Data set [3] has as its system thrombin. The conditions noted are these: Fusetani et al.; cited from earlier work.
Data set [4] addresses T1, microsomal aminopeptidase (Sus scrofa, UniProt P15145).
T1 sequence (P15145 1-963): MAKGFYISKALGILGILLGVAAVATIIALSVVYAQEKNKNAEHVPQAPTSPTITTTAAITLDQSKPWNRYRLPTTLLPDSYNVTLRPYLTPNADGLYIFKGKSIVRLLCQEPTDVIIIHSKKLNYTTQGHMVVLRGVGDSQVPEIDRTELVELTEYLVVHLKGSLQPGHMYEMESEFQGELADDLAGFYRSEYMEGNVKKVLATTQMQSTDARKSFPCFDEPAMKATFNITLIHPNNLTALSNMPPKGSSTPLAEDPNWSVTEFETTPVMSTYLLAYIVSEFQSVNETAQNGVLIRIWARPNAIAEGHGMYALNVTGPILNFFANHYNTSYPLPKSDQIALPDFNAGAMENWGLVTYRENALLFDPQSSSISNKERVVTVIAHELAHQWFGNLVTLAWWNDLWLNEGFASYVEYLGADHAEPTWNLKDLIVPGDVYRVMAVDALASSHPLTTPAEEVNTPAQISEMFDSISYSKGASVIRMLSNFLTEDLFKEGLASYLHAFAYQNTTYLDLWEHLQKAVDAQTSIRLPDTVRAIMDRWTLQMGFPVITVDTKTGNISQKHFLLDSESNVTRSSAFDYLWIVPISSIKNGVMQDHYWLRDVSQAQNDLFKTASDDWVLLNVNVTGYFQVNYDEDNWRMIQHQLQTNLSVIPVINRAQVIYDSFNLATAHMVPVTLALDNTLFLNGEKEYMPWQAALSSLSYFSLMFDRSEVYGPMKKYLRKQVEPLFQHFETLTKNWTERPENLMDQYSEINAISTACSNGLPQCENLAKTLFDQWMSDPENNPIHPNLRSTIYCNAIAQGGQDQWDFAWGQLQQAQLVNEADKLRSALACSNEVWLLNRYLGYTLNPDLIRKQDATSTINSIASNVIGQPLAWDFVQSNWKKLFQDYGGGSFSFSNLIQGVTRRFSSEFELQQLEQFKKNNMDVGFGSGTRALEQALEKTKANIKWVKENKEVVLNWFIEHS
Conditions: Ocain et al. 1992; cited from earlier work.

The target in data set [5] is thrombin (Homo sapiens, UniProt P00734). Conditions: reported in literature; cited from earlier work.

In the case of `N=C(N)NCCC[C@@H](C=O)NC(=O)[C@@H]1CCCN1C(=O)[C@H](N)Cc1ccccc1` [dF-P-R-al, D-phenylalanyl-prolyl-argininal], in the data set on baboons [1], the “Antihemostatic Effects APTT” value was 145 s and the “Antihemostatic Effects Bleeding Time” value is 14 min. The “Antithrombotic Effects ED50” value with baboons [2] is 250 nmol/kg/min. In the case of `N=C(N)NCCC[C@@H]1NC(=O)[C@@H]2CCCN2C(=O)[C@@H](NC=O)CNC(=O)/C=C/[C@H](Cc2ccc(O)cc2)NC(=O)[C@@H](Cc2ccccc2)NC(=O)C1=O` [Cyclotheonamide A], the “IC50 (thrombin)” value with thrombin [3] is reported as 0.076 mg/mL (≈ 104 µM). For `CC1CNc2c(cccc2S(=O)(=O)N[C@@H](CCCNC(=N)N)C(=O)N2CC[C@@H](C)C[C@@H]2C(=O)O)C1` (stereo partly drawn) [Argatroban, 2R,4R-4-methyl-1-[N-2-(3-methyl-1,2,3,4-tetrahydro-8-quinolinesulfonyl)-L-argininal]-2-piperdinecarboxylic acid], the “Antihemostatic Effects APTT” value in the data set with baboons [1] was more than 300 s. Further, the “Antithrombotic Effects ED50” value in the data set with baboons [2] is reported as more than 800 nmol/kg/min.

`NC(N)=NCCC[C@H](NC(=O)[C@@H]1CCCN1C(=O)[C@H](N)Cc1ccccc1)B(O)O` [dF-P-boroR, D-phenyalanyl-prolinyl-boroarginine]: in the data set with baboons [1], the “Antihemostatic Effects APTT” value is 95 s and the “Antihemostatic Effects Bleeding Time” value is 12 min. Further, in the data set with baboons [2], the “Antithrombotic Effects ED50” value is listed as 25 nmol/kg/min. Regarding `NC(=O)C(=O)C(N)Cc1ccccc1` (centres unmarked) [3-Amino-2-oxo-4-phenylbutanoic acid amide], the negative logarithm of the Ki (pKi) in data set [4] is 5.60.

Take “N-acetyl-D-Phe-Pro Arg-[yC(=O)--CH2 ]--CH2 --CH2 --CH2 --(C=O)-Gln-Ser-His-Asn-Asp-Gly-Asp-Phe-Glu-Glu-Ile-Pro-Glu-Glu-Tyr-Leu-Gln”: the negative logarithm of the Ki (pKi) on thrombin [5] is 9.85.
